Source: patent US20230075765A1, “PYRROLO[2,3-D]PYRIMIDINE DERIVATIVE TARGETING EGFR MUTATION, AS WELL AS THE PREPARATIVE METHOD AND THE USE THEREOF” (WEST CHINA HOSPITAL, SICHUAN UNIVERSITY, priority 2020, published 2023)
Read-outs that look alike come from different tables or passages of the source.

Key:
[1] = tested on: A549 cells; test: Inhibition of cell proliferation, CCK8 method; type: cell-based, human; conditions: A549 lung adenocarcinoma cells, 48 h, read-out: Inhibitory activity (IC50) against A549
Protocol: (§1) Compounds 1-9 of the present invention were respectively weighed and dissolved in 1 ml of dimethyl sulfoxide (DMSO), to prepare a 10 mM drug solution, which was stored in a refrigerator at −20° C. in the dark after packaging. The stock solution was diluted with the corresponding culture medium to the required concentration just before the experiment.
(§2) HBE cells and BEAS-2B cells are normal lung bronchial epithelial cell lines, and both cells were cultured in DMEM high glucose medium (supplemented with 10% fetal bovine serum and 1% double antibody) to the logarithmic growth phase; H460 cells, A549 cells, H1975 cells and HCC827 cells are lung cancer cell lines, and all of them were cultured in RPMI1640 medium (supplemented with 10% fetal bovine serum and 1% double antibody) to the logarithmic growth phase. Among them, H1975 cells and HCC827 cells are EGFR mutant cells.
(§3) When the cells were cultured to 90% of the growth density, the cells were digested with 0.25% trypsin to prepare a single cell suspension. The cells were counted, and then seeded in a 96-well plate at a density of 5000 cells/well, 100 μl for each well. The culture plate was moved into a CO2 incubator and incubated for 24 h at 37° C. and 5% CO2. Compounds at different concentrations were added to each well, 5 replicate wells for each concentration, and the cells were treated with the compounds for 48 hours. CCK8 detection reagent was added to each well according to the operation manual, and then the plate was further incubated for 1 h before terminating the culture. 450 nm wavelength was chosen, and the absorbance value of each well was adjusted on the microplate ELISA analyzer. The result was recorded. […] was taken as the horizontal axis, and absorbance as the vertical axis to plot a curve. The half inhibitory concentration (IC50) was calculated by Bliss method. Each experiment was repeated at least 3 times.
(§4) Normal lung cell lines and different lung cancer cell lines were selected for experiments. Amongst, the compound with high anti-cancer activity was screened, whose anti-tumor activity was further studied.

[2] = tested on: BEAS-2B cells; test: Inhibition of cell proliferation, CCK8 method; type: cell-based, human; conditions: BEAS-2B normal bronchial epithelial cells, 48 h, read-out: Inhibitory activity (IC50) against BEAS-2B
Protocol: as §1, §2, §3, §4

[3] = biological target: T1, EGFR (Homo sapiens, UniProt P00533); test: Kinase inhibition, mobility shift assay; type: biochemical; conditions: for Single-concentration inhibitory activity against EGFR, Mean (100% inhibition): compound concentration 80 nM; for IC50: wild-type EGFR, read-out: Inhibitory activity (IC50) on EGFR
T1 construct: purchased Carna 14-531
T1 sequence (P00533 25-1210): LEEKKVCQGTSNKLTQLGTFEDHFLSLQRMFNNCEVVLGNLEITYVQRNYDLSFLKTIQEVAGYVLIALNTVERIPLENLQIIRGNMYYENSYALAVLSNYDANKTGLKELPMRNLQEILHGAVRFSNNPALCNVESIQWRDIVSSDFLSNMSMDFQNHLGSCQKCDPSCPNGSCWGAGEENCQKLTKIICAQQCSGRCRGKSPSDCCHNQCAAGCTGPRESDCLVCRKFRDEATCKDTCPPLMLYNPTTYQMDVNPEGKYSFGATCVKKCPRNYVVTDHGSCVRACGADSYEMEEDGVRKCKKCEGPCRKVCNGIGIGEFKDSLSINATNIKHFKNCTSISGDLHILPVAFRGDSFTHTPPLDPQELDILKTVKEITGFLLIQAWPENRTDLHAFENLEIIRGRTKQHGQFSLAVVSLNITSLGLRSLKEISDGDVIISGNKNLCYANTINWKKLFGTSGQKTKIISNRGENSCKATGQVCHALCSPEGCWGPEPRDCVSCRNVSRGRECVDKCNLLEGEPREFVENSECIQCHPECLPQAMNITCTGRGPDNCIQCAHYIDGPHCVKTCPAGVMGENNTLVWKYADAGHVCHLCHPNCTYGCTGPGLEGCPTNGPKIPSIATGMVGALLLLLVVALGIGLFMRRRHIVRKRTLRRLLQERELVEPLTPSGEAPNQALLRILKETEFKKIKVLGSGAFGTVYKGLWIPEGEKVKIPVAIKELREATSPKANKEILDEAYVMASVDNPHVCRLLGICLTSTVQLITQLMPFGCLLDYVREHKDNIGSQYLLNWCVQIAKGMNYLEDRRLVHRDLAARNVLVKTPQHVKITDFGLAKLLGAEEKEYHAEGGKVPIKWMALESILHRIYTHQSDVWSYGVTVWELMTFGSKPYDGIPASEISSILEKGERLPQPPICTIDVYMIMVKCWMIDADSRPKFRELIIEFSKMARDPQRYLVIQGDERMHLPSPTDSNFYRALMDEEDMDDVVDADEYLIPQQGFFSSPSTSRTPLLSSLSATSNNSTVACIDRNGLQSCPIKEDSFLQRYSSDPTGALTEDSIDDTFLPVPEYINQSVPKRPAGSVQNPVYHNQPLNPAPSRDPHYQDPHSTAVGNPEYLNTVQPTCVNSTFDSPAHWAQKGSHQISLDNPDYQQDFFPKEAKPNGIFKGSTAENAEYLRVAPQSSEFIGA
Protocol: (§5) According to relevant literature, the inhibitory activity of five kinases (EGFR, EGFR-LT, EGFR-LTC, BTK, JAK3) were tested. Note: EGFR, EGFR-LT, EGFR-LTC: wild-type EGFR, L858R/T790M (EGFR-LT), or L858R/T790M/C797S (EGFR-LTC) mutant protein.
(§6) 95 μl of 100% DMSO was added to the first well of a 96-well plate, and then 5 μl of 10 mM compound solution was added to prepare a 500 μM compound solution.
(§7) 10 μl solution was taken out from the 50-fold concentration of compound solution (prepared and tested), and transferred to a 96-well plate, to which was added 90 μl kinase buffer to prepare a 5-fold concentration of compound solution.
(§8) 5 μl solution was taken out from the 5-fold concentration of compound solution in a 96-well plate, and transferred to a 384-well reaction plate. For example, the solution was transferred from well A1 of a 96-well plate to wells A1 and A2 of a 384-well plate, from well A2 of a 96-well plate to wells A3 and A4 of a 384-well plate, and so on.
(§9) 1) The kinase was added to 1× kinase buffer to form 2.5× kinase solution;
(§10) 2) 10 μl of the above 2.5× kinase solution was transferred to a 384-well reaction plate, and 1× kinase buffer was added to the negative control well, then incubated for 10 min at room temperature;
(§11) 3) FAM-labeled polypeptide and ATP were added to 1× kinase buffer to form a 2.5×substrate solution;
(§12) 5) The 384-well reaction plate was incubated at 28° C. for 60 min, to which was added 30 μl of stop solution to stop the reaction, and the model of biochemical incubator was SPX-100B-Z.
(§13) The conversion rate was read on CaliperEZ Reader.
(§14) 1) The conversion rate data were copied from CaliperEZ Reader II;
(§15) 2) The conversion rate was converted into the inhibition rate;
(§16) Percent inhibition=(max−conversion)/(max−min)*100
(§17) “min” is the reading of the control well without enzyme; “max” is the reading of DMSO control well.
(§18) 3) IC50 values were fitted by using XLFit excel add-in version 5.4.0.8.
(§19) Fitting formula: Y=Bottom+(Top−Bottom)/(1+(IC50/X)^HillSlope)

[4] = biological target: T2, JAK3 (Homo sapiens, UniProt P52333); test: Kinase inhibition, mobility shift assay; type: biochemical; conditions: for Single-concentration inhibitory activity on JAK3, Mean (100% inhibition): compound concentration 1 nM; for IC50: read-out: Inhibitory activity (IC50) on JAK3
T2 construct: purchased Carna 08-046
T2 sequence (P52333 1-1124): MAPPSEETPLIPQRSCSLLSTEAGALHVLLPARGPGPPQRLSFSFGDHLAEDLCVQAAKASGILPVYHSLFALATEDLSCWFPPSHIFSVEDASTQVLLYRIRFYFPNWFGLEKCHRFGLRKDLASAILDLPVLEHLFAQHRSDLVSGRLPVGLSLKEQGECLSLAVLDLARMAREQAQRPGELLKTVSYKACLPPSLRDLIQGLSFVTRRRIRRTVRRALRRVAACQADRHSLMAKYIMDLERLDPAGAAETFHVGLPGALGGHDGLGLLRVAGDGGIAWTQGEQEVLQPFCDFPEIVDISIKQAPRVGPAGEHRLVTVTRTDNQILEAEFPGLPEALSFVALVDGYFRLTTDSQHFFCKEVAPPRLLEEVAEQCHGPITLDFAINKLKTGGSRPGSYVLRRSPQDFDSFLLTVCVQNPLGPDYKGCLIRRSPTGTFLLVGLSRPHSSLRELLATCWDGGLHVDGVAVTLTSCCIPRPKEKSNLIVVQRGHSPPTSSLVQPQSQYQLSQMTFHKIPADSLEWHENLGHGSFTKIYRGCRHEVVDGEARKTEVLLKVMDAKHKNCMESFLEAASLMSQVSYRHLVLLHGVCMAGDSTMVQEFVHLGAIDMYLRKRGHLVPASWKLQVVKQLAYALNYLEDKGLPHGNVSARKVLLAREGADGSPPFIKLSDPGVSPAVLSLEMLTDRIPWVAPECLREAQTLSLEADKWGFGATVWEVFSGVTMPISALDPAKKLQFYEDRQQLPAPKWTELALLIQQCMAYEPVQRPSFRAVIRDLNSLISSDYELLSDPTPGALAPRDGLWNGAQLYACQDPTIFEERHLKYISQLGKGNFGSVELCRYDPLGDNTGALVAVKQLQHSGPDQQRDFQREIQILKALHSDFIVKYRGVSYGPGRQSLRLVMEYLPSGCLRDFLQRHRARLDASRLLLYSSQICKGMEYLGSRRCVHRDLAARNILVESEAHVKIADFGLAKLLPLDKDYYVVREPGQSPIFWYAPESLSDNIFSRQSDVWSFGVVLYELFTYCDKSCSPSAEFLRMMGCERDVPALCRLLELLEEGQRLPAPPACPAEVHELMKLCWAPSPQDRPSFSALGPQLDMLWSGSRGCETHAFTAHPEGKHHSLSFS
Protocol: as §5, §6, §7, §8, §9, §10, §11, §12, §13, §14, §15, §16, §17, §18, §19

Structure (SMILES) | IC50 [1] [µM] | Single-concentration inhibitory activity against EGFR, Mean (100% inhibition) [3] [% inhibition] | Single-concentration inhibitory activity on JAK3, Mean (100% inhibition) [4] [% inhibition] | IC50 ([1]; Homo sapiens) [µM] | IC50 [3] [µM] | IC50 [4] [µM] | IC50 [2] [µM] | IC50 ([2]; Homo sapiens) [µM]
C=CC(=O)Nc1cccc(Oc2nc(Nc3ccc(N4CCN(C)CC4)c(Cl)c3)nc3[nH]ccc23)c1 [Compound 2] | 1.68 | 86 | 77 |  |  |  | 3.8 | 
C=CC(=O)Nc1cccc(Oc2nc(Nc3ccc(N4CCN(C)CC4)c(OC)c3)nc3[nH]ccc23)c1 [Compound 4] |  | 32 | 26 | 20.6 | 0.217 | 0.0023 |  | 9.89
C=CC(=O)Nc1cccc(Oc2nc(Nc3ccc(N4CCN(C)CC4)c([N+](=O)[O-])c3)nc3[nH]ccc23)c1 [Compound 5] |  | 37 | 23 | 2.9 | 0.145 | 0.0022 |  | 3.68

The remaining compounds from weak to strong by IC50 ([1]; Homo sapiens), led by results:

IC50 [1] [µM] | Single-concentration inhibitory activity against EGFR, Mean (100% inhibition) [3] [% inhibition] | Single-concentration inhibitory activity on JAK3, Mean (100% inhibition) [4] [% inhibition] | IC50 ([1]; Homo sapiens) [µM] | IC50 [3] [µM] | IC50 [4] [µM] | Structure (SMILES) | IC50 [2] [µM] | IC50 ([2]; Homo sapiens) [µM]
 | 4.5 | −7.6 | 10.8 |  |  | C=CC(=O)Nc1cccc(Oc2nc(Nc3ccc(N4CCN(C)CC4)c(N)c3)nc3c2ccn3COC(=O)C(C)(C)C)c1 [Compound 8] |  | 9.54
 | 3.6 | −4.0 | 9.63 |  |  | C=CC(=O)Nc1cccc(Oc2nc(Nc3ccc(N4CCN(C)CC4)c(I)c3)nc3c2ccn3COC(=O)C(C)(C)C)c1 [Compound 9] |  | 29.1
 | 63 | 29 | 6.06 | 0.064 | 0.0022 | C=CC(=O)Nc1cccc(Oc2nc(Nc3ccc(N4CCN(C)CC4)c(N)c3)nc3[nH]ccc23)c1 [Compound 6] |  | 7.8
 | 4.7 | −1.4 | 3.1 |  |  | C=CC(=O)Nc1cccc(Oc2nc(Nc3ccc(N4CCN(C)CC4)c([N+](=O)[O-])c3)nc3c2ccn3COC(=O)C(C)(C)C)c1 [Compound 7] |  | 5.73
